Residues, ends and D or L forms follow the SMILES beside them. Primed or numbered codes have the meaning given here. No end group written: not given here. *: point of attachment. diMeOPac = (2',4'-dimethoxy)phenacyl ester on the Asp side chain, COc1ccc(C(=O)C*)c(OC)c1; Fmoc = O=C(OCC1c2ccccc2-c2ccccc21)*; X1 = CC(O*)C(=O)c1ccccc1; OPac′ = phenacyl ester; X2 = ClC(Cl)(Cl)CO*
Tests used:
[1] = buffer, pH 6.5
Procedure: The C-terminal unprotected peptide (1.5 equivalent) and the N-terminal peptide (1 equivalent) were solubilized in freshly degassed 6M guanidinium hydrochloride, 0.2 M sodium phosphate, pH 7.5 buffer at a concentration of 2.5 mM each. After addition of 1% thiophenol and 1% benzyl mercaptan the pH was adjusted to 6.5 (or different thiols concentration or pH as reported in the text). Aliquots of this solution were treated with equal volumes of BME for 5 minutes and then with 10% TCEP for 10 minutes to completely hydrolyse any thiol adduct before HPLC analysis. Ligation reaction analysis was conducted using a gradient starting from 10% of B with a gradient slope of 1.66% of B per minute. Base line resolution of the different isomerization product was achieved using a gradient starting at 20% of B and with an increase of 0.33% B.

SV8 protease = SV8 protease (Staphylococcus aureus, UniProt P0C1U8); details: 1 unit/20 μg, 24 hours at 37° C.
Procedure: Peptides were digested using the enzyme SV8 protease. The peptides, solubilized to a final 5 mM concentration in 0.1 M NH4HCO3 and 0.3% BME, were digested by adding the enzyme solution (250 unit/ml), keeping the enzyme/peptide ratio of 1 unit/20 μg. The reaction was stopped after 24 hours at 37° C. by treatment with equal volumes of 10% TCEP, and extent of digestion assayed by RP-HPLC. Digested fragments were characterized by ESI-MS.

half-life in the ligation condition [1]	Compound	Hydrolysis t1/2 [1]	digestion by SV8 protease (SV8 protease)
500 h	CC(=O)N[C@@H](CC(=O)OC(C)C(=O)c1ccccc1)C(=O)N[C@@H](Cc1ccc(O)cc1)C(=O)N[C@@H](C)C(=O)N[C@@H](CCCCN)C(=O)N[C@@H](Cc1ccc(O)cc1)C(=O)N[C@@H](C)C(=O)N[C@@H](CCCCN)C(=O)N[C@@H](CC(C)C)C(=O)O (some centres unmarked) [OMop, Ac-D(OMop)YAKYAKL] (Ac-D(X1)YAKYAKL-OH)	9.9 h	
	Ac-D(diMeOPac)YAKYAKL [OdiMeOPac]	3.8 h	
	Ac-D(OPac)YAKYAKL (Ac-D(OPac′)YAKYAKL)	1.2 h	
	LYRAD(β)CSYUFL [product 6]		unaffected by the enzyme
	LYRAE(γ)CSYRFL [product 7]		unaffected by the enzyme
less than 2 hours	CC(C)C[C@H](NC(=O)[C@H](CCCCN)NC(=O)[C@H](C)NC(=O)[C@H](Cc1ccc(O)cc1)NC(=O)[C@H](CCCCN)NC(=O)[C@H](C)NC(=O)[C@H](Cc1ccc(O)cc1)NC(=O)[C@H](CC(=O)OCC(Cl)(Cl)Cl)NC(=O)OCC1c2ccccc2-c2ccccc21)C(=O)O [Troc, Fmoc-D(Troc)YAKYAKL] (Fmoc-D(X2)YAKYAKL-OH)	1.5 h	

Reference: patent US7566697B2, “Carboxy protection strategies for acidic C-terminal amino acids in chemical ligation of oligopeptides” (Amylin Pharmaceuticals, Inc., priority 2002, dated 2009)
